Assay results: patent US20250241902A1, “METHODS, COMPOSITIONS AND SYSTEMS FOR EVALUATION OF VISUAL FUNCTION” (BELITE BIO, INC, priority 2022, published 2025)
“And” between values parts separate entries of the source, which are not always exact repeats. Equal values may be shown once.

Tests used:
Format in all cases: in vivo, human
[1] = tested on: adolescent STGD1 patients; test: Clinical study: best corrected visual acuity (BCVA) test
Excerpt: In some embodiments, visual acuity may be evaluated with a logarithm of the minimum angle of resolution chart (log MAR chart). A log MAR chart comprises rows of letters that are used to estimate visual acuity. Zero log MAR may indicate standard vision, positive values may indicate poor vision and negative values may indicate good vision. In some embodiments, the best corrected visual acuity (BCVA) early treatment diabetic retinopathy study (ETDRS) letters score can be calculated with the following formula: […]
(§1) The therapeutic effect of a compound of Formula (I), also known as Tinlarebant, was evaluated in a group of individuals with adolescent STGD. The treatment covered Phase 1b and Phase 2. Phase 1b included a 4-week treatment and a 14-day follow-up. Phase 2 included a 2-year treatment and 1-month follow-up. A total of 13 individuals received the treatment: 5 males and 8 females. All 13 individuals had STGD 1 aged 12-18 years old. All 13 individuals received the treatment of a compound of Formula (I), a RBP4 inhibitor.
(§2) The clinical study evaluated ocular and systemic safety and tolerability of the compound and determined the optimal dose, pharmacokinetics (PK), and […]. The study measured visual improvement by best corrected visual acuity (BCVA) test, self-reported visual questionnaire test, the change in lesion size by FAF, the change in retinal thickness and morphology by SD-OCT, the change in retinal sensitivity by microperimetry, and the change in quantitative AF. In addition, this study evaluated correlation between reduction in RBP4 and rate of lesion growth including change in autofluorescence.

[2] = tested on: adolescent STGD1 patients; test: Clinical study: quantitative autofluorescence (qAF)
Excerpt: In some embodiments, a method for measuring quantitative autofluorescence (qAF) is used or evaluation of ocular disease or visual function. In some embodiments, the qAF method may incorporate an internal fluorescent reference to account for variable laser power and detector sensitivity. In some embodiments, an intensity of AF may be calculated against the calibrated internal fluorescence reference standard in the optical pathway.
as §1, §2

[3] = tested on: adolescent STGD1 patients; test: Clinical study: retinal thickness by SD-OCT (CST, MST, OST)
Excerpt: In some embodiments, spectral domain-optical coherence tomography (SD-OCT) is used for evaluation of ocular disease or visual function. In some embodiments, SD-OCT provides in vivo cross-sectional and […] visualization of the retina and the RPE. In some embodiments, SD-OCT is used to detect the presence of RPE atrophy. In some embodiments, SD-OCT is used to evaluate ellipsoid zone (EZ) defect width. In some embodiments, the EZ line provides information on the integrity of the photoreceptors. In some embodiments, the EZ line provides useful information in early disease. In some embodiments, an image of SD-OCT is used to evaluate the central subfield retina thickness (CST). In some embodiments, an image of SD-OCT is used to evaluate the middle subfield retina thickness (MST). In some embodiments, an image of SD-OCT is used to evaluate the outer subfield retina thickness (OST). The therapeutic effect of a compound of Formula (I), also known as Tinlarebant, was evaluated in a group of individuals with adolescent STGD. The treatment covered Phase 1b and Phase 2. Phase 1b included a 4-week treatment and a 14-day follow-up. Phase 2 included a 2-year treatment and 1-month follow-up. A total of 13 individuals received the treatment: 5 males and 8 females. All 13 individuals had STGD 1 aged 12-18 years old. All 13 individuals received the treatment of a compound of Formula (I), a RBP4 inhibitor. The clinical study evaluated ocular and systemic safety and tolerability of the compound and determined the optimal dose, pharmacokinetics (PK), and […]. The study measured visual improvement by best corrected visual acuity (BCVA) test, self-reported visual questionnaire test, the change in lesion size by FAF, the change in retinal thickness and morphology by SD-OCT, the change in retinal sensitivity by microperimetry, and the change in quantitative AF. In addition, this study evaluated correlation between reduction in RBP4 and rate of lesion growth including change in autofluorescence.

[4] = subject 3, left eye, phase 2 baseline
[5] = subject 3, left eye, phase 2 month 6
[6] = subject 4, left eye, phase 2 baseline
[7] = subject 4, left eye, phase 2 month 6

CC(=O)N1CCc2c(C(=O)N3CCC(c4ccc(F)c(F)c4C(F)(F)F)CC3)n[nH]c2C1 [Tinlarebant]
patients with visual improvement in at least one eye (BCVA) ([1]; cohort of 13): 8 out of the 13 | patients with visual improvement in both eyes (BCVA) ([1]; cohort of 13): 2 patients | visual improvement, summary ([1]; cohort, approximately 7 months): Majority of the patients showed visual improvement in at least one eye | BCVA average letters of gain ([1]; left eye, cohort): 1.9±1.32 letters | BCVA average letters of loss ([1]; right eye, cohort): −2.8±1.85 letters | BCVA ETDRS letters gained ([1]; subject 4, both eyes): 3 ETDRS letters | BCVA letters ([1]; subject 4, both eyes, intermediate value in 7-month treatment period): 50 letters | BCVA letters ([1]; subject 4, both eyes, last value in 7-month treatment period): 53 letters | BCVA letters ([1]; subject 4, both eyes, start of 7-month treatment period): 45 letters | BCVA letters gained ([1]; subject 10, both eyes, approximately 7-month treatment): 9 letters | BCVA letters gained ([1]; subject 11, left eye): 6 letters | BCVA change ([1]; subject 11, right eye): no change | autofluorescence (AF) based on quantitative AF ([2]; subject 3, both eyes, especially left, phase 2 week 1 vs week 9): decrease | qDAF value [2, 4]: 351 | qDAF value [2, 5]: 268 | qDAF value ([2]; subject 3, right eye, phase 2 baseline): 335 | qDAF value ([2]; subject 3, right eye, phase 2 month 6): 275 | patients with improvement (increase in thickness) or no change in OST in both eyes ([3]; cohort): 4 patients | patients with no change or growth in MST in at least one eye ([3]; cohort): 5 patients | patients with no to little change in CST in at least one eye ([3]; cohort): 5 patients | CST change, Left Eye (mean ± SD, μm) ([3]; cohort means, Table 4): −8.83 ± 1.91 μm | CST change, Right Eye (mean ± SD, μm) ([3]; cohort means, Table 4): −10.15 ± 1.5 μm | MST change, Left Eye (mean ± SD, μm) ([3]; cohort means, Table 4): −7.92 ± 2.13 μm | MST change, Right Eye (mean ± SD, μm) ([3]; cohort means, Table 4): −6.77 ± 1.74 μm | OST change, Left Eye (mean ± SD, μm) ([3]; cohort means, Table 4): −7.60 ± 2.62 μm | OST change, Right Eye (mean ± SD, μm) ([3]; cohort means, Table 4): −8.08 ± 2.47 μm | CST average thinning ([3]; left eye, cohort): 7.6±2.14 microns | MST average thinning ([3]; left eye, cohort): 7.2±2.54 microns | OST average thinning ([3]; left eye, cohort): 3.11±3.5 microns | CST average thinning ([3]; right eye, cohort): 10.27±2.2 microns | MST average thinning ([3]; right eye, cohort): 6.27±2.03 microns | OST average thinning ([3]; right eye, cohort): 3.8±3.08 microns | average thickness: center [3, 4]: 97 micron | average thickness: central max [3, 4]: 202 micron | average thickness: central min [3, 4]: 97 micron | average thickness: marker [3, 4]: 97 micron | average thickness: center [3, 5]: 112 micron | average thickness: central max [3, 5]: 216 micron | average thickness: central min [3, 5]: 104 micron | average thickness: marker [3, 5]: 112 micron | change in CST, MST, or OST ([3]; subject 3, overall): little to no change | change of OST ([3]; subject 4, both eyes, especially left, phase 2 week 1 vs week 9): increase | change of MST ([3]; subject 4, either eye, phase 2 week 1 vs week 9): little to no change | average thickness: center [3, 6]: 63 micron | average thickness: central max [3, 6]: 218 micron | average thickness: central min [3, 6]: 57 micron | average thickness: marker [3, 6]: 60 micron | average thickness: center [3, 7]: 58 micron | average thickness: central max [3, 7]: 199 micron | average thickness: central min [3, 7]: 54 micron | average thickness: marker [3, 7]: 56 micron | retinal thickness growth (stated after OST) ([3]; subject 11, both eyes (one value per eye, eye not assigned)): 15 microns and 16 microns | change of OST ([3]; subject 11, both eyes, phase 2 week 1 vs week 9): increase | change of CST or MST ([3]; subject 11, either eye, phase 2 week 1 vs week 9): little to no change
